# Reference: patent US20250346890A1, “LEUKEMIA TREATMENT” (Deutsches Krebsforschungszentrum, priority 2019, published 2025)
# B1: RSPO3: human R-spondin 3 protein (SEQ ID NO:2); conditioned medium or recombinant (Peprotech 120-44) (protein, listed as Homo sapiens)
# chain: MHLRLISWLFIILNFMEYIGSQNASRGRRQRRMHPNVSQGCQGGCATCSDYNGCLSCKPRLFFALERIGMKQIGVCLSSCPSGYYGTRYPDINKCTKCKADCDTCFNKNFCTKCKSGFYLHLGKCLDNCPEGLEANNHTMECVSIVHCEVSEWNPWSPCTKKGKTCGFKRGTETRVREIIQHPSAKGNLCPPTNETRKCTVQRKKCQKGERGKKGRERKRKKPNKGESKEAIPDSKSLESSKEIPEQRENKQQQKKRKVQDKQKSVSVSTVH
# B2: RSPO1: secreted R-spondin protein; conditioned medium or recombinant human RSPO1 (Peprotech 120-38) (protein, UniProt Q2MKA7 21-263, looked up)
# R-spondin-1: SRGIKGKRQRRISAEGSQACAKGCELCSEVNGCLKCSPKLFILLERNDIRQVGVCLPSCPPGYFDARNPDMNKCIKCKIEHCEACFSHNFCTKCKEGLYLHKGRCYPACPEGSSAANGTMECSSPAQCEMSEWSPWGPCSKKQQLCGFRRGSEERTRRVLHAPVGDHAACSDTKETRRCTVRRVPCPEGQKRRKGGQGRRENANRNLARKESKEAGAGSRRRKGQQQQQQQGTVGPLTSAGPA
# Tests used:
# [1] = system: THP-1 cells; test: Monocyte-macrophage differentiation of THP-1 cells (FACS / qRT-PCR of CD14, CD11B); type: cell-based, human
# Procedure: Cultured cells were lysed in Macherey-Nagel RAI buffer containing 1% β-mercaptoethanol and total RNAs were isolated using NucleoSpin RNA isolation kit (Macherey-Nagel 740955). Reverse transcription and PCR amplification were performed. Primers used in this study are listed in Supplementary Table 1. Graphs show relative gene expressions to GAPDH. […] Statistical analyses were performed using PRISM7 software with unpaired t-test or one-way ANOVA test.
# For analyzing macrophage differentiation of THP-1, cells were harvested, pelleted and resuspended in ice-cold blocking buffer (PBS supplemented with 1% BSA and 0.1% NaN3). Cells were treated with Fc Receptor Binding Inhibitor as recommended by the manufacturer (eBioscience 14916173) and stained directly with FITC/APC-conjugated antibodies diluted in blocking buffer or with non-conjugated primary antibodies followed by fluorochrome-labeled secondary antibodies. Isotype-matched antibodies were used as controls. Dead cells were excluded by counterstaining with propidium iodide. For analyzing apoptosis of THP-1, cells were fixed in 4% PFA, permeabilized by MeOH and blocked with PBS supplemented with 1% BSA and 0.1% Tween-20. Cells were stained with anti-active Caspase-3 antibody and fluorochrome-labeled secondary antibody. FACS Samples were analyzed with FACSCalibur or FACSCanto (BD Biosciences). 10,000 events per samples were acquired, and results were processed with Cell Quest or FACSDiva software (BD Biosciences). For BMP4 stimulation, cells were treated with 5 and 25 ng ml^−1 recombinant human BMP4 protein (R&D systems 314-BP). 100, 300 and 1000 nM LDN […] (Tocris 6053) were used for rescue assay. For the THP-1 cell number quantification and differentiation validation in vivo, bone marrow cells were harvested from tibias of NSG mice and red blood cells were removed by ACK Lysing Buffer (Gibco A1049201). Cells were stained and analyzed as above. Here, 50,000 PI-negative events per samples were acquired.
# (§1) THP-1 cells were treated with 0.3, 1.0 and 3.0 μg ml^−1 goat polyclonal anti-RSPO2 antibodies (R&D systems AF3266) or goat polyclonal GFP antibodies (ABIN 100085). After 48 hours, medium was replaced including fresh antibodies—and incubated another 24 hours. Western blot analysis and FACS analyses were performed as discussed above.
# (§2) The sequences of shRSPO2 and shControl (Table 1) were synthesized, inserted into the transfer plasmid Tet-pLKO-puro (Addgene 21915) and validated by sequencing. Lentivirus was produced with the 3rd generation lentiviral system according to the protocol available at the Trono lab as described (www.epfl.ch/labs/tronolab/). THP-1 cells were infected with lentivirus with 8 μg ml^−1 Polybrene (Sigma TR-1003) and selected with 0.5 μg ml^−1 puromycin (Calbiochem 540411). Single cell clones were obtained by limiting dilutions. The shRNA expression of clones was validated by monitoring RSPO2 expression after doxycycline treatment (1.0 μg ml^−1) for 3 days.
# [2] = system: Smad1; test: Western blot of pSmad1 and tSmad1 in THP-1 cells; type: cell-based, human; settings: THP-1 cells treated with RSPO2 siRNA plus inhibitor
# Procedure: Cultured cells were rinsed with cold PBS and lysed in Triton lysis buffer ([…] Tris-Cl, pH 7.5, 1% Triton X-100, 150 mM NaCl, 1 mM EDTA, 1 mM EGTA, 1 mM β-glycerophosphate, 1 mM Na3 VO4) or RIPA buffer with complete Protease Inhibitor Cocktail (Roche 11697498001). Lysates were mixed with Laemmli buffer with β-mercaptoethanol and boiled at 95° C. for 5 min to prepare SDS-PAGE samples. Western blot images were acquired with SuperSignal West pico ECL (ThermoFisher 34580) or Clarity Western ECL (Biorad 1705061) using LAS-3000 system (FujiFilm). Quantification of blots was done using ImageJ software.
# as §1
# [3] = system: BMP4 signaling; test: BRE reporter assay in HEPG2 cells stimulated by BMP4; type: cell-based, human; settings: HEPG2 cells
# Procedure: BRE luciferase assays were executed using 300,000 ml^−1 of HEPG2 cells in 24-well plates. PGL3-BRE-Luciferase (500 ng ml^−1) and pRL-TK-Renilla plasmids (50 ng ml^−1) were transfected using Lipofectamine 3000. After 24 hours, cells were serum starved 2 hours and stimulated 14-16 hours with 80 ng ml^−1 recombinant human BMP4 protein (R&D systems 314-BP) along with AP tagged RSPO1-4 or flag tagged RSPO1-3 conditioned medium. Luciferase activity was measured with the Dual luciferase reporter assay system (Promega E1960). Firefly luminescence (BRE) was normalized to Renilla. TOPFlash luciferase assays were carried out as previously described (Berger et al. (2017), EMBO Rep 18, 712-725, doi: 10.15252/embr.201643585). […] Statistical analyses were made with the PRISM7 software using unpaired t-test or one-way ANOVA test. Not significant (ns) P>0.05, *P<0.05, **P<0.01, ***P<0.001, and ****P<0.0001.
# [4] = system: THP-1 cells; test: THP-1 cell growth and colony formation assay; type: cell-based, human; settings: TetOn-shRSPO2 clones, Dox treatment
# Procedure: as §2
# 1,000 cells per well of Dox-inducible THP-1 clones were seeded into 24-well plates in RPMI+10% FBS, 1% penicillin-streptomycin, 1 mM sodium pyruvate, 2 mM L-glutamine and 0.5% methylcellulose, with or without Doxycycline (1 μg ml^−1). After 8 days incubation, microscopic dark field images were taken using LEICA DMIL microscope/Canon DS126311 camera.
# [5] = system: THP-1 cells; test: THP-1 AML xenograft in NSG mice; type: in vivo, mouse
# Procedure: For analyzing macrophage differentiation of THP-1, cells were harvested, pelleted and resuspended in ice-cold blocking buffer (PBS supplemented with 1% BSA and 0.1% NaN3). […] Isotype-matched antibodies were used as controls. Dead cells were excluded by counterstaining with propidium iodide. For analyzing apoptosis of THP-1, cells were fixed in 4% PFA, permeabilized by MeOH and blocked with PBS supplemented with 1% BSA and 0.1% Tween-20. […] FACS Samples were analyzed with FACSCalibur or FACSCanto (BD Biosciences). 10,000 events per samples were acquired, and results were processed with Cell Quest or FACSDiva software (BD Biosciences). […] For the THP-1 cell number quantification and differentiation validation in vivo, bone marrow cells were harvested from tibias of NSG mice and red blood cells were removed by ACK Lysing Buffer (Gibco A1049201). Cells were stained and analyzed as above. Here, 50,000 PI-negative events per samples were acquired.
# NOD SCID gamma (NSG) mice were recruited from the Center for Preclinical Research, DKFZ, Heidelberg. […] Randomized mouse cohorts (n=6-7 mice/group) were treated with Dox or vehicle throughout the study. Treatment started 3 days prior to cell transplantation via drinking water consisting 1 mg/ml Dox and 5% saccharose, or 5% saccharose only. […] 500,000 cells in 100 μl PBS were injected intravenously into the lateral tail vein of 7-8-week-old female mice. Besides regular health checks, mouse body weight was taken twice per week throughout the experiment. Heparinized blood was collected from the tail vein at days 9 and 22 after transplantation. Terminal blood collection was performed under isoflurane anesthesia followed by cervical dislocation. Necropsies were taken as indicated or when mice reached a stop criterion of the German Society of Laboratory Animal Sciences (GV-SOLAS), until here defined as survival. All mouse experiments were in accordance with the approved guidelines of the local Governmental Committee for Animal Experimentation (RP Karlsruhe, Germany, license G140/19).
# For each reaction, 25 ng genomic DNA was used. A standard curve was generated with genomic DNA extracted from NSG mice blood containing known numbers of THP-1 cells and used for converting qPCR fluorescent signals to actual cell numbers. Normal NSG mice blood and nuclease free water were used as negative controls.
# [6] = system: Xenopus embryos; test: Crispr-Cas9-mediated Xenopus rspo2 knockout embryos; type: in vivo, Xenopus tropicalis
# [7] = target: T1, ALK3RD (Homo sapiens, UniProt P36894, Q233D); test: BRE reporter assay in HEPG2 cells with constitutively active ALK3; type: cell-based; settings: RSPO treatment
# T1 construct: expressed in transfected cells; host or cells: HEPG2
# From the text: Alkaline phosphatase (AP) fusions with RSPOs (human RSPO1^ΔC-AP-pCDNA3, RSPO2^ΔC-AP-pCDNA3, RSPO2^ΔC-AP-pCS2+, RSPO3^ΔC-AP-pCDNA3, murine RSPO4^ΔC-pCDNA3) were generated by replacing the C-terminal domain (ΔC) by AP and used to produce conditioned media. Human RSPO2 wild-type (RSPO2), Furin1 and Furin2 deletion mutants (RSPO2^ΔFU), and TSP1 domain deletion mutant (RSPO2^ΔTSP) are ORFs lacking the C-terminal domain, C-terminally tagged with a Flag-tag and subcloned into pCS2+. R1-TSP^R2, R1-TSP^R2-AP and R1-TSP^R2-Flag plasmids were generated by fusion PCR and cloned in pCS2+. Conditioned media from all RSPO constructs were adjusted to equal concentration by western blot and AP activity measurement, and further validated by WNT reporter assay using HEK293T cells. The extracellular domain of ALK3 (ALK3^ECD) was subcloned in AP-pCS2+ for generating conditioned medium and used in in vitro binding assays. Constitutively active forms of ALK2,3,6 (ALK^QD) were generated by Gln-Asp mutations as described in Fujii et al. (1999), Mol Biol Cell 10, 3801-3813, doi: 10.1091/mbc.10.11.3801. HA-tagged ALK3 was a gift from Dr. D. Koinuma (Goto et al. (2007), J Biol Chem 282, 20603-20611, doi: 10.1074/jbc.M702100200). For Xenopus mRNA microinjection, Xenopus laevis BMP4-pCS2+, myc-tagged RSPO2^ΔC-myc-pCS2+, RSPO2^ΔFU-myc-pCS2+ and RSPO2^ΔTSP-myc-pCS2+ plasmids, DNALK3-pCS2+, membrane-RFP, EYFP-tagged human ALK3-pCS2+ were used for in vitro transcription. Human ZNRF3 and ZNRF3^ΔRING constructs were gifts from Dr. F. Cong (Novartis; Hao et al. (2012), Nature 485, 195-200, doi: 10.1038/nature11019), and ORFs were subcloned in flag-pCS2+ for in vitro transcription.
# BRE luciferase assays were executed using 300,000 ml^−1 of HEPG2 cells in 24-well plates. PGL3-BRE-Luciferase (500 ng ml^−1) and pRL-TK-Renilla plasmids (50 ng ml^−1) were transfected using Lipofectamine 3000. […] Luciferase activity was measured with the Dual luciferase reporter assay system (Promega E1960). Firefly luminescence (BRE) was normalized to Renilla. […]
# T1 sequence (P36894 24-532 Q233D): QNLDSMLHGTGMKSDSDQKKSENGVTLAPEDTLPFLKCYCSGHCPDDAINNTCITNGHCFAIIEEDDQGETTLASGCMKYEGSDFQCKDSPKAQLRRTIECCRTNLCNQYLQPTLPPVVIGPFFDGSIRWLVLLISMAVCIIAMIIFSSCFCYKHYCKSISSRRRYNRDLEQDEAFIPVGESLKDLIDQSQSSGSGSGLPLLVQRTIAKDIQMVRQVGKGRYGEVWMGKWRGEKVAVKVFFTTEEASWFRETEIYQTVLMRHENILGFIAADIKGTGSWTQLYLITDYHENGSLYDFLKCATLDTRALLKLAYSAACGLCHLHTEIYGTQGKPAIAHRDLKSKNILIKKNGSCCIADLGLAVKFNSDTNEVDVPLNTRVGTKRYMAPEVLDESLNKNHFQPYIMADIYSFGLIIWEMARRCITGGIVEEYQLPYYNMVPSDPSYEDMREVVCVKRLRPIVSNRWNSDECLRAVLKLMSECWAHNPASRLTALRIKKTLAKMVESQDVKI
molecule,measurement,setting,value
c1ccc2c(-c3cnn4cc(-c5ccc(N6CCNCC6)cc5)cnc34)ccnc2c1 [LDN 193189],monocyte-macrophage differentiation induced by siRSPO2,"[1]; THP-1 cells, siRSPO2 plus inhibitor",impaired monocyte-macrophage differentiation
same,Smad1-phosphorylation increased by RSPO2 knockdown,[2],reverted increased Smad1-phosphorylation
"CN(C)c1cccc2c(S(=O)(=O)NCCCCCN)cccc12 [monodansylcadaverin, reference compound]",effect on inhibition of BMP signaling by RSPO2,[3]; BMP4+RSPO2,eliminated inhibition of BMP signaling by RSPO2
"shRSPO2: Dox-inducible shRNA against RSPO2, SEQ ID NO:10, expressed in THP-1 clones (GACAATGGGTGTAGCCGATCTCGAGATCGGCTACACCCATTGTC)",THP-1 cell growth,[4],reduced THP-1 cell growth
same,colony formation,[4],reduced
same,BMP signaling and monocyte-macrophage differentiation,"[1]; THP-1 TetOn-shRSPO2 clones, Dox-administration",induced BMP signaling and robust monocyte-macrophage differentiation
same,prolongation of disease-free survival,"[5]; NSG mice injected with TetOn-shRSPO2 THP-1 cell line #1, Dox induction, still alive at reporting time",at least 2.3 fold
same,survival,"[5]; NSG mice injected with TetOn-shRSPO2 THP-1 cell line #2, Dox induction",survived almost twice as long
same,tumor burden,"[5]; NSG mice, TetOn-shRSPO2 THP-1 cells, Dox induction",reduced tumor burden
same,macrophage differentiation in bone marrow,"[5]; NSG mice, both TetOn-shRSPO2 cell lines, Dox induction",enhanced macrophage differentiation
"gRNA: previously established guide RNA for Crispr-Cas9 rspo2 knockout, TGACTCCATAGTATCCAGGA (SEQ ID NO:11) (listed as DNA, chemistry not given here)",embryo phenotype,[6],mildly ventralized embryos
same,BMP target gene expression,[6]; sizzled in situ hybridization,increased BMP target gene expression
B1,BMP4 signaling,"[3]; BMP4 stimulation, treatment with RSPO protein",decreased BMP4 signaling
same,BMP signaling induced by constitutively active ALK3,[7],specifically inhibited
B2,BMP signaling induced by constitutively active ALK3,[7],had no effect
